Reference: publication PMC6009968, “Through scaffold modification to 3,5-diaryl-4,5-dihydroisoxazoles: new potent and selective inhibitors of monoamine oxidase B” (Journal of Enzyme Inhibition and Medicinal Chemistry, 2017)
Where two headings read alike, the source gives them in different places. Marks after values point to notes of the source that are not given here.

Experiments:
hMAO-B = target: T1, hMAO-B (Homo sapiens, UniProt P27338); test: Inhibition of human recombinant MAO B (Amplex Red assay); conditions: for Ratio, selectivity ratios [IC50(MAO-A)]/[IC50(MAO-B)]: bounds assume IC50 against MAO-A is the highest concentration tested (100 μM); for Ratio: assumes the inactive isoform IC50 is the highest concentration tested (100 μM)
T1 sequence (P27338 1-520): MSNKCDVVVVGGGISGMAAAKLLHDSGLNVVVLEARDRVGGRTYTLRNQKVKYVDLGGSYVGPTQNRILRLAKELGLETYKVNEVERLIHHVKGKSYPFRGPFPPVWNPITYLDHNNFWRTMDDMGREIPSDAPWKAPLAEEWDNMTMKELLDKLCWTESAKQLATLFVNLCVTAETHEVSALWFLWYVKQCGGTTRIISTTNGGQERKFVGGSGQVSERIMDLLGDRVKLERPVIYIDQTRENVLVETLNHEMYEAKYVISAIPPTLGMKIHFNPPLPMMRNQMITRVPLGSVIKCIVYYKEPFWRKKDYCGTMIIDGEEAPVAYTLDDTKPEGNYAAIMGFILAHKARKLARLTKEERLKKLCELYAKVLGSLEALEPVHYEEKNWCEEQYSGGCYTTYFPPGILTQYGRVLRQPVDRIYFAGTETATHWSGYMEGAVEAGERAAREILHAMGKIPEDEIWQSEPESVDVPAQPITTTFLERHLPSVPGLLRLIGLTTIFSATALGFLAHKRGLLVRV

hMAO-A = target: T2, hMAO-A (Homo sapiens, UniProt P21397); test: Inhibition of human recombinant MAO A (Amplex Red assay)
T2 sequence (P21397 1-527): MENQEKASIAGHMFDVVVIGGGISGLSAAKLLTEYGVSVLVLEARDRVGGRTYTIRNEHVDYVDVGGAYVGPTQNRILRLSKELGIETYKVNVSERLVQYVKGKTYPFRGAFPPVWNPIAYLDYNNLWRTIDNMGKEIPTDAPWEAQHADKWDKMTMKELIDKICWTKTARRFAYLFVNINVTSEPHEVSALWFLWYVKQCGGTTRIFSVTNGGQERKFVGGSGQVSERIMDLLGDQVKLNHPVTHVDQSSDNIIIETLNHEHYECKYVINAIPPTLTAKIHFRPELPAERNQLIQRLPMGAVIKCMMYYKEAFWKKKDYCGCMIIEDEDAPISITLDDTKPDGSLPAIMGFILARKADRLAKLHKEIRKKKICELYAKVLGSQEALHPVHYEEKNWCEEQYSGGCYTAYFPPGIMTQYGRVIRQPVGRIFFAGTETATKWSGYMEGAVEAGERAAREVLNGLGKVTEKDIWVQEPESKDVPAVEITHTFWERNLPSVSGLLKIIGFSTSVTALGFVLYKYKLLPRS

[1] = read-out: MAO-B (IC50), Table 4, single enantiomers, mean ± SEM from five experiments
[2] = read-out: MAO-A (IC50), Table 4, single enantiomers
[3] = read-out: MAO-B (IC50), Table 3, mean ± SEM from five experiments
[4] = read-out: MAO-A (IC50), Table 3, highest concentration tested

SMILES	Ratio, selectivity ratios [IC50(MAO-A)]/[IC50(MAO-B)] (hMAO-B; Table 3)	Ratio (hMAO-B; Table 4, single enantiomers)	IC50 (hMAO-A; [2])	other results
COc1ccc([C@H]2CC(c3ccc(C)cc3)=NO2)cc1 [R-(−) EMAC II m]		792.6^b	> 100000 nM	IC50 (hMAO-B; [1]): 126 ± 8.44 nM
Cc1ccc(C2=NOC(c3ccc(F)cc3)C2)cc1 (racemic) [EMAC II k]	>312^d			IC50 (hMAO-B; [3]): 320 ± 13.6 nM; IC50 (hMAO-A; [4]): > 100000 nM
Cc1ccc(C2=NO[C@H](c3ccc(F)cc3)C2)cc1 [S-(+) EMAC II k]		2956^b	> 100000 nM	
COc1ccc([C@@H]2CC(c3ccc(C)cc3)=NO2)cc1 [S-(+) EMAC II m]		342.6	> 100000 nM	IC50 (hMAO-B; [1]): 292 ± 13.4 nM
Cc1ccc(C2=NO[C@@H](c3ccc(F)cc3)C2)cc1 [R-(−) EMAC II k]		333.5^b	> 100000 nM	IC50 (hMAO-B; [1]): 300 ± 12 nM
Cc1ccc(C2=NOC(c3ccc(C)cc3)C2)cc1 (racemic) [EMAC II j]	>2436^d			IC50 (hMAO-B; [3]): 41 ± 1.52 nM; IC50 (hMAO-A; [4]): > 100000 nM
COc1ccc(C2CC(c3ccc(C)cc3)=NO2)cc1 (racemic) [EMAC II m]	>222^d			IC50 (hMAO-B; [3]): 450 ± 18 nM; IC50 (hMAO-A; [4]): > 100000 nM

Continued, in another order:

Ratio, selectivity ratios [IC50(MAO-A)]/[IC50(MAO-B)] (hMAO-B; Table 3)	Ratio (hMAO-B; Table 4, single enantiomers)	IC50 (hMAO-A; [2])	SMILES	other results
>961^d			Cc1ccc(C2=NOC(c3ccc(Cl)cc3)C2)cc1 (centres unmarked) [EMAC II i]	IC50 (hMAO-B): 104 ± 3.69 nM; IC50 (hMAO-A): > 100000 nM
>8354^d			Cc1ccc(C2=NOC(c3ccc(Cl)c(Cl)c3)C2)cc1 (racemic) [EMAC II l]	IC50 (hMAO-B; [3]): 12 ± 0.37 nM; IC50 (hMAO-A; [4]): > 100000 nM
	6549^b		Cc1ccc(C2=NO[C@@H](c3ccc(Cl)cc3)C2)cc1 [R-(−) EMAC II i]	IC50 (hMAO-B): 15.3 ± 0.95 nM; IC50 (hMAO-A): > 100000 nM
	52 910^b		Cc1ccc(C2=NO[C@@H](c3ccc(Cl)c(Cl)c3)C2)cc1 [R-(−) EMAC II l]	selectivity towards MAO B, increase of the enantiomer versus the racemic mixture (hMAO-B): increased by more than six folds; IC50 (hMAO-A): > 100000 nM
		> 100000 nM	Cc1ccc(C2=NO[C@H](c3ccc(Cl)cc3)C2)cc1 [S-(+) EMAC II i]	IC50 (hMAO-B; read-out: MAO-B (IC50), Table 4, single enantiomers): > 100000 nM
	3188^b	> 100000 nM	Cc1ccc(C2=NO[C@H](c3ccc(C)cc3)C2)cc1 [S-(+) EMAC II j]	
	9124		Cc1ccc(C2=NO[C@H](c3ccc(Cl)c(Cl)c3)C2)cc1 [S-(+) EMAC II l]	IC50 (hMAO-A): > 100000 nM
	39 216^b	> 100000 nM	Cc1ccc(C2=NO[C@@H](c3ccc(C)cc3)C2)cc1 [R-(−) EMAC II j]	IC50 (hMAO-B; [1]): 2.55 ± 0.11 nM
